Laboratory results reported in paper PMC5786060, “Discovery of new molecular entities able to strongly interfere with Hsp90 C-terminal domain” (Scientific Reports, 2018).
Read-outs that look alike come from different tables or passages of the source.

Assays:
[1] = tested on: U937 (human monocytic cell line from histiocytic lymphoma); assay: Anti-proliferation MTT assay, U937 cells; assay type: cell-based; conditions: for IC50: Homo sapiens
Protocol: (§1) Jurkat and U937 (2 × 10^4 /well) cells were seeded in triplicate in 96 well−plates and incubated for the 24 h or 48 h in the absence or presence of different concentrations of compounds 1, 4–5, 7–15, 21–22, 26 (concentration between 10 µM to 100 µM) or Novobiocin (concentration between 50 µM to 500 µM). Stock solutions of compounds (100 mM in DMSO) were diluted just before addition to the sterile culture medium and the final concentration of DMSO was 0.15% (v/v).
(§2) The number of viable cells was determined by using a […] (MTT, Sigma-Aldrich) conversion assay, according to the method described by Terracciano et al. 2016[27],[28]. After the indicated treatment, the cells were incubated for additional 3 h at 37 °C, with 25 µL of MTT (5 mg/mL in PBS). The formazan crystals thus formed were dissolved in 100 μl of buffer containing 50% (v/v) N,N-dimethylformamide, 20% SDS (pH 4.5). The absorbance was read at 570 nm using an Absorbance Microplate Reader (Titertek multiskan MCC7340, LabSystems, Vienna, VA, USA) equipped with a 620 nm filter. The cell population growth inhibition was also tested by cytometric counting (trypan blu exclusion). IC50 values were calculated from cell viability dose−response curves and defined as the concentration resulting in 50% inhibition of cell survival, compared to control cells treated with DMSO (see Supplementary Material Tables S2 and S3).

recombinant human Hsp90α = biological target: T1, recombinant human Hsp90α (Homo sapiens, UniProt P07900); assay: SPR binding to immobilized recombinant Hsp90α; conditions: Biacore 3000, immobilized full length Hsp90α, 25 °C, 1:1 Langmuir model, read-out: KD (nM) ± SD
T1 construct: purchased Abcam
Protocol: Recombinant human Hsp90α was purchased from Abcam (Abcam, Cambridge, UK). […] SPR analyses were carried out according to our previously published data[25]–[28],[32],[50]. Surface Plasmon Resonance Spectroscopy (SPR) analyses were performed to determine binding of various molecules to full length Hsp90α using a Biacore 3000 optical biosensor equipped with research-grade CM5 sensor chips (GE Healthcare). Hsp90α was coupled to the surface of a CM5 sensor chip using standard amine-coupling protocols, according to the manufacturer’s instructions.
The protein (100 µg mL^−1 in 10 mM CH3COONa, pH 5.0) was immobilized on individual sensor chip surfaces at a flow rate of 5 µL min^−1 to obtain densities of 8–12 kRU. For the experiments a recombinant Hsp90α surface, a BSA surface and one unmodified reference surface were prepared for simultaneous analyses. […] For each molecule a six-point concentration series were set up, spanning […], and for each sample the complete binding study was performed using triplicate aliquots. Changes in mass, due to the binding response, were recorded as resonance units (RU). To obtain the dissociation constant (KD) (Table 1), these responses were fit to a 1:1 Langmuir binding model by nonlinear regression using the BiaEvaluation software program provided by GE Healthcare. Simple interactions were suitably fitted to a single-site bimolecular interaction model (A + B = AB), yielding a single KD. (Table 1). SPR experiments were performed at 25 °C, using a flow rate of 50 µL min^−1, with 60 s monitoring of association and 300 s monitoring of dissociation.

[2] = tested on: Jurkat (human leukemic T lymphocyte); assay: Anti-proliferation MTT assay, Jurkat cells; assay type: cell-based; conditions: for IC50: Homo sapiens
Protocol: as §1, §2

[3] = tested on: Hsp90-dependent client proteins Raf-1, p-Akt, p-Erk and p53; Hsc70, Hsp90, Hsp70 in Jurkat cells; assay: Western blot of Hsp90 client proteins and heat shock proteins; assay type: cell-based, human; conditions: 25 and 50 µM, 24 h, western blot densitometry
Protocol: Following the treatment, the cells were trypsinized and homogenized on ice in RIPA lysis buffer (50 mM Hepes, 10 mM EDTA, 150 mM NaCl, 1% NP-40, 0.5% sodium deoxycholate, 0.1% SDS, pH 7.4), supplemented with protease inhibitors cocktail (Sigma-Aldrich). After centrifugation at 4 °C to removed cell debris, an equal protein amount (40 µg) was separated by SDS-PAGE under denatured reducing conditions and was then transferred to nitrocellulose membranes. The blots were blocked with 3% BSA and were incubated at 4 °C overnight with primary antibodies: anti-Hsp 70; anti-Hsp 90α/ß, anti-Raf1, anti-pAkt, anti Erk, anti pErk, anti-p53, anti Hsc70, anti GRP94, anti cyclin A antibodies (Santa Cruz Biotechnology, Inc., Delaware, CA, USA), anti-actin antibody (Sigma-Aldrich) anti CDK2, anti Cyclin D1 and anti CDK4 antibodies (Cell Signaling Technology, Leiden, Netherlands). Appropriate peroxidase-conjugate secondary antibodies were used to detect primary antibodies, and enzymatic signals were visualized by chemiluminescence reagent Pierce ECL (Thermo Scientific, Rockford, IL, USA). Quantitative densitometry analyses were performed using a ImageQuant LAS 4000 system (GE Healthcare Life Sciences,NY, USA).

Jurkat cells = assay: Cell cycle distribution / hypodiploid cells by PI flow cytometry; assay type: cell-based, human; conditions: for hypodiploid cells (subG0/G1 DNA content): 100 µM, 48 h
Protocol: Cell DNA content was measured by propidium iodide (PI) incorporation into permeabilized cells, as described by Nicoletti et al. Briefly, the Jurkat cells were treated for 24 h or 48 h with compounds used at the different concentrations. In particular, the compounds 7 or 10 were used at 25 or 50 µM, novobiocin was used at 50, 100 or 200 µM. The treated cells were harvested and incubated with a PI solution (0.1% sodium citrate, 0.1% Triton X-100 and 50 μg/ml of prodium iodide, Sigma-Aldrich, 10 μg/ml Rnase A) for 30 min at room temperature.
The cells were analyzed using FACScalibur flow cytometry (Becton Dickinson, San Josè, CA. The distribution of cells in cell cycle phases was determined using ModFit LT analysis software (Becton Dickinson). The percentage of apoptotic cells is represented as the percentage of hypodiploid cells accumulated at the sub G0/G1 phase of the cell cycle and was quantified using the CellQuest software (Becton Dickinson). Results were expressed as a mean ± SD of three experiments performed in triplicate.

[4] = tested on: PHA-stimulated human peripheral blood mononuclear cells (PBMC); assay: Cytotoxicity on PHA-stimulated PBMC by trypan blue count; assay type: cell-based; conditions: 25 µM, DMSO control about 5 ± 0.9%
Protocol: Human peripheral blood mononuclear cells (PBMC), induced to proliferate by phytohemagglutinin (PHA) (10 µg/ml), were used to evaluate cytotoxic effects by trypan blue count of compound 7 and 10. Human peripheral blood mononuclear cells (PBMC) were isolated from buffy coats of healthy donors (kindly provided by the Blood Center of the Hospital of Battipaglia, Salerno, Italy) by using standard Ficoll−Hypaque gradients.

[5] = U-937, 24 h, read-out: IC50 (µM) 24h
[6] = U-937, 48 h, read-out: IC50 (µM) 48h

## NC(=O)c1ccccc1NC(=O)CCCCCN1C(=O)c2ccccc2C1=O [Compound 1]
[1]; [5]
  IC50: > 100 µM
[1]; [6]
  IC50: > 100 µM
Recombinant human Hsp90α
  Kd: 1.5 ± 0.5 nM
[2]; 24 h, read-out: IC50 (µM) 24h
  IC50: > 100 µM
[2]; 48 h, read-out: IC50 (µM) 48h
  IC50: > 100 µM

## O=C1c2ccccc2C(=O)N1CCSc1ncnc2scc(-c3ccc(Cl)cc3)c12 [Compound 4]
[1]; [5]
  IC50: > 100 µM
[1]; [6]
  IC50: > 100 µM
Recombinant human Hsp90α
  Kd: 3.2 ± 1.1 nM
[2]; 24 h, read-out: IC50 (µM) 24h
  IC50: > 100 µM
[2]; 48 h, read-out: IC50 (µM) 48h
  IC50: > 100 µM

## Cc1cc(C)c2c(C)cc3nnc(SCCCN4C(=O)c5ccccc5C4=O)n3c2c1 [Compound 5]
[1]; [5]
  IC50: 91.2 µM
[1]; [6]
  IC50: 91.2 µM
Recombinant human Hsp90α
  Kd: 14.7 ± 9.4 nM
[2]; 24 h, read-out: IC50 (µM) 24h
  IC50: 100 µM
[2]; 48 h, read-out: IC50 (µM) 48h
  IC50: 98.3 µM

## COc1ccc(NCC(=O)Nc2ncc(Cc3ccc(Cl)c(Cl)c3)s2)cc1 [Compound 7]
[3]
  degradation of Hsp90-dependent client proteins Raf-1, p-Akt, p-Erk and p53: 50–60%
  reduction of Hsc70: 15–20%
Jurkat cells
  hypodiploid cells (subG0/G1 DNA content): 10%
[4]; 24 h
  non-viable cells percentage: about 6 ± 1.8%
[4]; 48 h
  non-viable cells percentage: ~8 ± 1.5%
[1]; [5]
  IC50: 51.2 µM
[1]; [6]
  IC50: 51 µM
Recombinant human Hsp90α
  Kd: 5.2 ± 3.8 nM
[2]; 24 h, read-out: IC50 (µM) 24h
  IC50: 25.1 µM
[2]; 48 h, read-out: IC50 (µM) 48h
  IC50: 22 µM

## O=C(CNc1ccc(F)cc1)Nc1ncc(Cc2ccccc2F)s1 [Compound 8]
[1]; 24 h
  IC50 (µM) 24h: not active
[1]; 48 h
  IC50 (µM) 48h: not active
Recombinant human Hsp90α
  Kd: 2.4 ± 0.6 nM
[2]; 24 h
  IC50 (µM) 24h: not active
[2]; 48 h
  IC50 (µM) 48h: not active

## COc1ccc(NCC(=O)Nc2ncc(Cc3cccc4ccccc34)s2)cc1 [Compound 9]
[1]; [5]
  IC50: 97.3 µM
[1]; [6]
  IC50: 95.3 µM
Recombinant human Hsp90α
  Kd: 20.9 ± 9.5 nM
[2]; 24 h, read-out: IC50 (µM) 24h
  IC50: 90.2 µM
[2]; 48 h, read-out: IC50 (µM) 48h
  IC50: 85.5 µM

## O=C(CCCCCn1c(=O)[nH]c2ccccc2c1=O)Nc1ccc(Br)cc1F [Compound 10]
[3]
  degradation of Hsp90-dependent client proteins Raf-1, p-Akt, p-Erk and p53: 50–60%
  reduction of Hsc70: 15–20%
Jurkat cells
  hypodiploid cells (subG0/G1 DNA content): 10%
Jurkat cells; after 24 h, retained after 48 h
  cell cycle phase in which cells are arrested: S phase
[4]; 24 h
  non-viable cells percentage: about 7 ± 1.3%
[4]; 48 h
  non-viable cells percentage: ~9 ± 1.8%
[1]; [5]
  IC50: 52 µM
[1]; [6]
  IC50: 50 µM
Recombinant human Hsp90α
  Kd: 20.8 ± 8.7 nM
[2]; 24 h, read-out: IC50 (µM) 24h
  IC50: 26.1 µM
[2]; 48 h, read-out: IC50 (µM) 48h
  IC50: 23.5 µM

## O=C(CCCCCn1c(=O)[nH]c2ccccc2c1=O)CCCn1ccnc1 [Compound 11]
[1]; [5]
  IC50: 90.1 µM
[1]; [6]
  IC50: 90.3 µM
Recombinant human Hsp90α
  Kd: 79.3 ± 7.2 nM
[2]; 24 h, read-out: IC50 (µM) 24h
  IC50: 48.2 µM
[2]; 48 h, read-out: IC50 (µM) 48h
  IC50: 42.5 µM

## O=C(CCCCCn1c(=O)[nH]c2ccccc2c1=O)NCCN1CCOCC1 [Compound 12]
[1]; [5]
  IC50: > 100 µM
[1]; [6]
  IC50: > 100 µM
Recombinant human Hsp90α
  Kd: 95.1 ± 5.7 nM
[2]; 24 h, read-out: IC50 (µM) 24h
  IC50: > 100 µM
[2]; 48 h, read-out: IC50 (µM) 48h
  IC50: > 100 µM
